Measured values from US9588122B2, “Methods of treating cancer sensitive to anti-EGFR therapy and modifying treatment using peroxiredoxin 6 biomarker” (The Board of Trustees of the Leland Stanford Junior …, priority 2013, dated 2017).

Assays:
[1] = system: A431; assay: Dose-dependent change in panel protein levels by western blot; assay type: cell-based, human; settings: for BAG4 protein level change / CAD17 protein level change / CBFB protein level change / Claudin 1 protein level change / ELAVL-1 protein level change / EpCAM protein level change / HSPG2 protein level change / PDCD4 protein level change / PRDX6 protein level change / QARS protein level change / S100A9 protein level change / SERPINE1 protein level change / SNX5 protein level change / TESTICAN2 protein level change / TNFAIP2 protein level change / TROP-2 protein level change: dose-dependent, 16 h; for changes in levels of the 16 validated proteins (immunoblots): erlotinib 100-1,000 nM, paclitaxel 10-100 nM; on BAG4 protein level change: key: (+) for increase; (−) for decrease; N.C.: (N.C) for no change; (~) for not detected; on CAD17 protein level change: key: (+) for increase; (−) for decrease; N.C.: (N.C) for no change; (~) for not detected; on CBFB protein level change: key: (+) for increase; (−) for decrease; N.C.: (N.C) for no change; (~) for not detected; on Claudin 1 protein level change: key: (+) for increase; (−) for decrease; N.C.: (N.C) for no change; (~) for not detected
Protocol: (§1) Lysates were sonicated for 10 minutes, heated at 95° C. for 10 minutes, and centrifuged for 15 minutes at 20,000×g. The supernatant was cleared through a 0.22-micron filter and protein concentration was determined (BCA, BioRad, Hercules, Calif.). Lysates were subject to SDS-PAGE and subsequent immunoblot. For in vivo experiments, mouse tumor pieces from 5 mice were pooled and suspended in RAF buffer and homogenized with a high-speed blender. The homogenate was centrifuged for 5 min at 200×g. The supernatant was sonicated on ice for 2 minutes and centrifuged for 1 hr at 12,000×g. The supernatant (soluble fraction) was cleared through a 0.22-micron filter and processed as above. The pellet (insoluble fraction) was resuspended in RAF buffer with 2% SDS and DTT, heated at 95° C. and sonicated prior to processing.

[2] = system: NSCLC cells; assay: Biomarker profiles / PRDX6 shedding of treated NSCLC (Example 3); assay type: cell-based
[3] = system: NSCLC patients; assay: PRDX6 levels in circulation of NSCLC patients before and after Tarceva; assay type: in vivo, human
Excerpt: To validate if this temporal profile is replicated in a clinical setting, the plasma and/or sera from human NSCLC patients was studied before and after Tarceva® (erlotinib) treatment. […] Serum samples from MRN #48 (FIG. 10A) were taken before and after treatment with Tarceva®. […] Plasma samples were obtained before treatment, and at 2 weeks and 4 weeks post initiation of treatment.

[4] = system: A431 cells; settings: previously shown; read-out: IC50 of paclitaxel in A431 cells; cited from earlier work
[5] = system: A431-ZDR tumors; assay: Gefitinib-resistant A431-ZDR xenograft model (Example 1); assay type: in vivo, mice; settings: treated vs untreated controls
Protocol: Lysates were sonicated for 10 minutes, heated at 95° C. for 10 minutes, and centrifuged for 15 minutes at 20,000×g. The supernatant was cleared through a 0.22-micron filter and protein concentration was determined (BCA, BioRad, Hercules, Calif.). Lysates were subject to SDS-PAGE and subsequent immunoblot. For in vivo experiments, mouse tumor pieces from 5 mice were pooled and suspended in RAF buffer and homogenized with a high-speed blender. The homogenate was centrifuged for 5 min at 200×g. The supernatant was sonicated on ice for 2 minutes and centrifuged for 1 hr at 12,000×g. The supernatant (soluble fraction) was cleared through a 0.22-micron filter and processed as above. The pellet (insoluble fraction) was resuspended in RAF buffer with 2% SDS and DTT, heated at 95° C. and sonicated prior to processing. Serum from 5 mice was pooled and depleted using two MARS-3 columns (Agilent) connected in tandem with HPLC. The unbound fraction was concentrated to a final concentration of 2 mg/ml and processed as above.

[6] = system: H1975; assay: Dose-dependent change in panel protein levels by western blot; settings: 16 h
Protocol: as §1

[7] = system: H23; assay: as above; settings: 16 h
Protocol: as §1

[8] = system: A431 xenografts; assay: A431 xenograft model (Example 1); assay type: in vivo, mice
Excerpt: . […] . Control animals received vehicle alone (20 animals).

[9] = system: A431 xenografts; assay: A431 subcutaneous xenograft study (Example 2)
[10] = system: H1975 xenografts; assay: H1975 xenograft study (Example 2)
[11] = system: H1650; assay: Dose-dependent change in panel protein levels by western blot; settings: 16 h
Protocol: as §1

[12] = patient MRN 9, Pre-Tarceva 1.07 +/− 0.03
[13] = patient MRN 48, Pre-Tarceva 0.27 +/− 0.01
[14] = patient MRN 91, Pre-Tarceva 0.65 +/− 0.09

C#Cc1cccc(Nc2ncnc3cc(OCCOC)c(OCCOC)cc23)c1 [erlotinib]
BAG4 protein level change ([1]; western blot): +
CAD17 protein level change ([1]; western blot): +
CBFB protein level change ([1]; western blot): +
Claudin 1 protein level change ([1]; western blot): +
ELAVL-1 protein level change ([1]; western blot): +
EpCAM protein level change ([1]; western blot): +
HSPG2 protein level change ([1]; western blot): +
PDCD4 protein level change ([1]; western blot): +
PRDX6 protein level change ([1]; western blot): +
QARS protein level change ([1]; western blot): +
S100A9 protein level change ([1]; western blot): +
SERPINE1 protein level change ([1]; western blot): +
SNX5 protein level change ([1]; western blot): −
TESTICAN2 protein level change ([1]; western blot): +
TNFAIP2 protein level change ([1]; western blot): +
TROP-2 protein level change ([1]; western blot): +
changes in levels of the 16 validated proteins (immunoblots) [1]: mirrored the effect of gefitinib
biomarker profiles by treated NSCLC cells ([2]; compared with Iressa treated cells, data not shown): the same as Iressa
circulating PRDX6 profile in patients with positive response ([3]; at least three patients, pilot data): initial rise in circulating PRDX6 (2-4 weeks post-therapy) followed by a decline in PRDX6 levels by 8 weeks post-therapy
PRDX6 level in circulation, Post-Tarceva (2 wks.) [3, 12]: 1.63 +/− 0.05 ng PRDX6/Total Protein in circulation
PRDX6 level in circulation, Post-Tarceva (3.5 to 4 wks.) [3, 12]: 0.33 +/− 0.11 ng PRDX6/Total Protein in circulation
PRDX6 level in circulation, Post-Tarceva (6.5-8 wks.) [3, 12]: 0.45 +/− 0.05 ng PRDX6/Total Protein in circulation
PRDX6 level in circulation, Post-Tarceva (2 wks.) [3, 13]: 0.76 +/− 0.08 ng PRDX6/Total Protein in circulation
PRDX6 level in circulation, Post-Tarceva (3.5 to 4 wks.) [3, 13]: 0.42 +/− 0.02 ng PRDX6/Total Protein in circulation
PRDX6 level in circulation, Post-Tarceva (3.5 to 4 wks.) [3, 14]: 5.0 +/− 0.3 ng PRDX6/Total Protein in circulation
PRDX6 level in circulation, Post-Tarceva (6.5-8 wks.) [3, 14]: 0.46 +/− 0.18 ng PRDX6/Total Protein in circulation

CC(=O)O[C@H]1C(=O)[C@@]2(C)[C@H]([C@H](OC(=O)c3ccccc3)[C@]3(O)C[C@H](OC(=O)[C@H](O)[C@@H](NC(=O)c4ccccc4)c4ccccc4)C(C)=C1C3(C)C)[C@]1(OC(C)=O)CO[C@@H]1C[C@@H]2O [paclitaxel]
BAG4 protein level change ([1]; western blot): N.C.
CAD17 protein level change ([1]; western blot): N.C.
CBFB protein level change ([1]; western blot): N.C.
Claudin 1 protein level change ([1]; western blot): N.C.
ELAVL-1 protein level change ([1]; western blot): N.C.
EpCAM protein level change ([1]; western blot): N.C.
HSPG2 protein level change ([1]; western blot): N.C.
PDCD4 protein level change ([1]; western blot): N.C.
PRDX6 protein level change ([1]; western blot): N.C.
QARS protein level change ([1]; western blot): N.C.
S100A9 protein level change ([1]; western blot): N.C.
SERPINE1 protein level change ([1]; western blot): N.C.
SNX5 protein level change ([1]; western blot): N.C.
TESTICAN2 protein level change ([1]; western blot): N.C.
TNFAIP2 protein level change ([1]; western blot): N.C.
TROP-2 protein level change ([1]; western blot): N.C.
changes in levels of the 16 validated proteins (immunoblots) [1]: none of the proteins tested demonstrated a change in abundance
shedding of PRDX6 ([2]; effective paclitaxel treatment on NSCLC): failed to elicit a similar shedding of PRDX6
IC50 [4]: ~10 nM

O=c1[nH]c2ccccc2n1C1CCN(Cc2ccc(-c3nc4cc5[nH]cnc5cc4nc3-c3ccccc3)cc2)CC1 [A6730]
BAG4 protein level change ([1]; western blot): +
CAD17 protein level change ([1]; western blot): N.C.
CBFB protein level change ([1]; western blot): +
Claudin 1 protein level change ([1]; western blot): +
ELAVL-1 protein level change ([1]; western blot): N.C.
EpCAM protein level change ([1]; western blot): N.C.
HSPG2 protein level change ([1]; western blot): N.C.
PDCD4 protein level change ([1]; western blot): N.C.
PRDX6 protein level change ([1]; western blot): N.C.
QARS protein level change ([1]; western blot): +
S100A9 protein level change ([1]; western blot): N.C.
SERPINE1 protein level change ([1]; western blot): N.C.
SNX5 protein level change ([1]; western blot): N.C.
TESTICAN2 protein level change ([1]; western blot): N.C.
TNFAIP2 protein level change ([1]; western blot): +
TROP-2 protein level change ([1]; western blot): N.C.

COc1cccc(-c2cc(=O)c3ccccc3o2)c1N [PD98059]
Claudin-1 expression ([1]; AKT or MAPK pathway inhibition): changes in expression
panel proteins that showed a change in abundance ([1]; AKT or MAPK pathway inhibition): CAD17, PDCD4, S100A9, SERPINE1, and Testican-2
panel proteins unchanged by treatment ([1]; AKT or MAPK pathway inhibition): ELAVL-1, EpCAM, HSPG2, TROP2, and SNX5
BAG4 protein level change ([1]; western blot): N.C.
CAD17 protein level change ([1]; western blot): +
CBFB protein level change ([1]; western blot): N.C.
Claudin 1 protein level change ([1]; western blot): +
ELAVL-1 protein level change ([1]; western blot): N.C.
EpCAM protein level change ([1]; western blot): N.C.
HSPG2 protein level change ([1]; western blot): N.C.
PDCD4 protein level change ([1]; western blot): +
PRDX6 protein level change ([1]; western blot): +
QARS protein level change ([1]; western blot): N.C.
S100A9 protein level change ([1]; western blot): +
SERPINE1 protein level change ([1]; western blot): +
SNX5 protein level change ([1]; western blot): N.C.
TESTICAN2 protein level change ([1]; western blot): +
TNFAIP2 protein level change ([1]; western blot): N.C.
TROP-2 protein level change ([1]; western blot): N.C.

COc1cc2ncnc(Nc3ccc(F)c(Cl)c3)c2cc1OCCCN1CCOCC1 [gefitinib]
tumor growth rates [5]: No differences in tumor growth rates
VAMP3, KLF5, and GLTSCR2 level ([1]; 100 nM): marginal increase
level of all other verified proteins ([1]; 100, 500, and 1,000 nM, 16 hrs, western blot): dose-dependent increase
ELAVL-1 response at higher doses ([1]; 500 and 1,000 nM vs 100 nM, 16 hrs, western blot): not amplified at higher doses
BAG4 protein level change ([1]; western blot): +
CAD17 protein level change ([1]; western blot): +
CBFB protein level change ([1]; western blot): +
Claudin 1 protein level change ([1]; western blot): +
ELAVL-1 protein level change ([1]; western blot): +
EpCAM protein level change ([1]; western blot): +
HSPG2 protein level change ([1]; western blot): +
PDCD4 protein level change ([1]; western blot): +
PRDX6 protein level change ([1]; western blot): +
QARS protein level change ([1]; western blot): +
S100A9 protein level change ([1]; western blot): +
SERPINE1 protein level change ([1]; western blot): +
SNX5 protein level change ([1]; western blot): −
TESTICAN2 protein level change ([1]; western blot): +
TNFAIP2 protein level change ([1]; western blot): +
TROP-2 protein level change ([1]; western blot): +
BAG4 protein level change [6]: N.C.
CAD17 protein level change [6]: N.C.
CBFB protein level change [6]: N.C.
Claudin 1 protein level change [6]: N.C.
ELAVL-1 protein level change [6]: N.C.
EpCAM protein level change [6]: N.C.
HSPG2 protein level change [6]: N.C.
PDCD4 protein level change [6]: N.C.
PRDX6 protein level change [6]: N.C.
S100A9 protein level change [6]: N.C.
SERPINE1 protein level change [6]: N.C.
SNX5 protein level change [6]: N.C.
TESTICAN2 protein level change [6]: N.C.
TNFAIP2 protein level change [6]: N.C.
TROP-2 protein level change [6]: N.C.
BAG4 protein level change [7]: +
CAD17 protein level change [7]: +
CBFB protein level change [7]: N.C.
Claudin 1 protein level change [7]: N.C.
ELAVL-1 protein level change [7]: N.C.
EpCAM protein level change [7]: N.C.
HSPG2 protein level change [7]: N.C.
PDCD4 protein level change [7]: N.C.
PRDX6 protein level change [7]: N.C.
QARS protein level change [7]: N.C.
S100A9 protein level change [7]: N.C.
SERPINE1 protein level change [7]: N.C.
SNX5 protein level change [7]: N.C.
TNFAIP2 protein level change [7]: +
TROP-2 protein level change [7]: N.C.
tumor size and growth ([8]; 50 mg/kg gefitinib vs untreated): significantly smaller than those in untreated mice and grew at a slower rate
panel proteins whose in vivo change was concordant with in vitro experiments ([8]; A431 tumor lysates, immunoblot): 12 of the 16
tumor growth ([9]; 50 mg/kg daily oral, vs vehicle Day 7 P=0.0102, Day 11 P=0.002, Day 15 P=0.0001): marked arrest in tumor growth
mean serum PRDX6 levels ([9]; between Day 0 and Day 15, change vs vehicle P<0.0001): decreased
tumor PRDX6 (tumor lysates) ([9]; day 15, vs vehicle, P=0.2185): no statistically significant difference
difference in mean change from baseline in serum PRDX6 normalized to tumor volume ([9]; vs vehicle, P=0.0027): statistically significant
tumor response (tumor volumes) ([10]; 50 mg/kg daily oral, vs vehicle): no response
mean serum PRDX6 levels ([10]; after treatment): increased
PRDX6 levels with respect to treatment ([10]; models carrying Iressa-resistant NSCLC xenografts): did not change
difference in mean change from baseline in serum PRDX6 ([10]; vs vehicle, Day 4 (P=0.461), Day 10-14 (P=0.3404)): not statistically significant
difference in mean change from baseline in serum PRDX6 normalized to tumor volume ([10]; vs vehicle, Day 4 (P=0.7922), Day 10-14 (P=0.8849)): not significant
BAG4 protein level change [11]: N.C.
CAD17 protein level change [11]: +
CBFB protein level change [11]: +
Claudin 1 protein level change [11]: +
ELAVL-1 protein level change [11]: +
EpCAM protein level change [11]: +
HSPG2 protein level change [11]: +
PDCD4 protein level change [11]: +
PRDX6 protein level change [11]: +
QARS protein level change [11]: +
S100A9 protein level change [11]: N.C.
SERPINE1 protein level change [11]: +
SNX5 protein level change [11]: N.C.
TESTICAN2 protein level change [11]: N.C.
TNFAIP2 protein level change [11]: +
TROP-2 protein level change [11]: +
